Measurements as given in patent publication US20100022582A1, “Tetrahydroisoquinoline Compound and Medicinal Use Thereof” (priority 2005, published 2010).

Assays:
[1] = system: cholesterol secretion from the liver; assay: Mouse liver lipid secretion-inhibitory activity (Triton WR-1339 method); assay type: in vivo, Slc: ICR mice; conditions: (10 mg)/kg orally; 3 hr after Triton WR-1339; mice
Method: About 5-week-old male Slc: ICR mice (Japanese SLC) were preliminarily bred for 1 week by feeding only in the daytime (9:00-18:00). During this period, the mice were-allowed to freely take tap water even during night. The mice were divided into a control group and a test compound group (6 mice per group) so that the average and standard deviation of the body weight would be almost the same. Blood (about 80 μL) was drawn from the orbital venous plexus under anesthesia using a glass capillary, and a test compound solution (10 mL/kg) obtained by previously suspending the compound in 5% gum arabic solution at 30 min after the blood sampling was orally administered. At 30 min after the administration, Triton WR-1339 (60 mg/mL) solution previously prepared with physiological saline was administered from the tail vein at a dose of 5 mL/kg. Blood was drawn again from the orbital venous plexus at 3 hr after the administration of Triton WR-1339. Plasma was separated from the blood taken and the total plasma cholesterol (TC) was measured using a commercially available measurement kit (Wako Pure Chemical Industries, Ltd.). The changes in the blood concentration over 3 hr after the Triton WR-1339 administration were calculated and taken as the cholesterol secretion rate from the liver. The secretion rates were compared between the control group and the test compound group, and the cholesterol secretion inhibitory rate by the test compound was calculated.

[2] = Stable radical elimination action (DPPH); conditions: 0.1 mM DPPH, room temperature 20 min (Examples 69, 72 and 73)
Method: 0.1 mM Diphenyl-2-picrylhydrazyl (DPPH) acetonitrile (CH3CN) solution (3 mL) was placed in a glass test tube, and a DMSO solution of a test compound was added at a 1% dose (30 μL). As a control, 0.1 mM DPPH CH3CN solution (3 mL) containing DMSO (30 μL) was used and for a blank test, CH3CN (3 mL) containing DMSO (30 μL) was used. After standing the solutions at room temperature for 60 min (20 min for Examples 69, 72 and 73), the absorbance at 517 nm was measured by a spectrophotometer. A stable radical inhibitory rate when control was 100% was calculated from [(absorbance of test substance−absorbance of blank test)÷(absorbance of control−absorbance of blank test)].

[3] = system: THP-1 cell-derived macrophage; assay: Cholesterol ester accumulation-inhibitory activity (THP-1 cell-derived macrophage foam cell formation); assay type: cell-based; conditions: THP-1 macrophage, acetyl LDL, 3 days
Method: THP-1 cells (DAINIPPON PHARMACEUTICAL CO., LTD.) were subcultured in RPMI-1640 medium containing 10% fetal calf serum (FBS), and cells at 6-13th passage after purchase were used. The cells were suspended in FBS-containing RPMI-1640 medium to give a suspension having a concentration of 4×10^5 cells/mL. The cell suspension was seeded on 12-well microplate by 1 mL, and treated with phorbol 12-myristate 13-acetate (PMA, 200 nM) as a differentiation inducer into macrophage. Then, acetyl LDL (400 μg/mL) separately prepared from LDL derived from plasma of a rabbit with genetic hyperlipidemia (KHC rabbit, Japan Laboratory Animals Inc.) was added. A test compound further dissolved in dimethyl sulfoxide (DMSO) and diluted with FBS-containing RPMI-1640 medium and a control solvent were applied. After cultivation in a carbon dioxide incubator for 3 days, the cells were washed with phosphate-buffered saline (pH 7.0), and the lipid was extracted with hexane-isopropanol (3:2). In addition, the cells were lysed with 1N-NaOH, and the protein content was measured. Free cholesterol and cholesterol ester in the lipid extraction sample were measured according to the method of Kunitomo et al. [Japan. J. Pharmacol., 34, 153-158 (1984)]. Cholesterol esters in the control cells and the cells treated with the test compound were compared, and the cholesterol ester accumulation inhibitory rate of the test compound was calculated.

liver ACAT = assay: ACAT inhibitory activity (rabbit liver microsome, cholesteryl oleate production); assay type: biochemical, Japanese white rabbits; conditions: 37° C. for 20 min
Method: Male Japanese white rabbits (body weight 2-2.5 kg) were bred on 100 g of a high cholesterol feed (feed added with cholesterol 1%, CLEA Japan, Inc.) daily for 4 weeks and sacrificed by exsanguination under anesthesia. The liver was removed, homogenated and centrifuged at 10,000 rpm and 4° C. for 15 min. The obtained supernatant was further centrifuged at 41,000 rpm and 4° C. for 60 min to give a microsome fraction. To a 0.15 M phosphate buffer were added the microsome suspension as an enzyme specimen, dimethyl sulfoxide (DMSO) or a solution (3 μL) of a test compound in DMSO and [1-14C]-oleoyl-CoA to be a reaction substrate to the total amount of 300 μL. After incubation at 37° C. for 20 min, a mixed solution of chloroform-methanol was added to quench the reaction. Water was added thereto and mixed, and the chloroform layer was separated. The solvent was evaporated to dryness and the residue was redissolved in n-hexane. The resulting solution was subjected to thin layer chromatography using a silica gel plate. The spot of cholesteryl oleate on the silica gel plate was scraped and quantified on a liquid scintillation counter. The ACAT inhibitory activity of the test compound is shown in cholesteryl oleate production inhibitory rate (%) [level of inhibition of cholesteryl oleate production as compared to the control].

[4] = Oral administration experiment (plasma concentration); assay type: in vivo; conditions: (10 mg)/kg orally, male SD rats, plasma 0.5-6 hr
Method: The test compound (10 mg)/kg suspended in 5% gum arabic solution was forcedly administered orally to male SD rats (body weight 200-250 g). At 0.5, 1, 2, 4, 6 hr after administration, blood was drawn without anesthesia, and heparin plasma was separated by a conventional method. The concentration of the test compound in the plasma was measured by high performance liquid chromatography.

Row | maximum blood concentration [4] [µg/mL] | Structure (SMILES) | Cholesterol secretion inhibitory rate (%) (10 mg)/kg/3 hr [1] | inhibitory rate (%) (10^−4M), stable radical [2] | cholesteryl ester accumulation inhibitory rate (%) (concentration: 10^−6 M) [3] | liver ACAT inhibition rate (%) (concentration: 10^−6 M) (liver ACAT)
1 |  | CCC(C)(C)C(=O)N1Cc2cc(N(C)C)ccc2C[C@H]1C(=O)Nc1cc(C)c(O)c(C)c1C.Cl [Example 69, 7-dimethylamino-2-(2,2-dimethylbutyryl)-N-(4-hydroxy-2,3,5-trimethylphenyl)-1,2,3,4-tetrahydroisoquinoline-(3S)-carboxamide hydrochloride] | 31.4 | 97.0 | 99.4 | 
2 |  | C/C=C/C=C/C(=O)N1Cc2cc(N(C)C)ccc2C[C@H]1C(=O)Nc1cc(C)c(O)c(C)c1C.Cl [Example 70, 7-dimethylamino-2-[(2E,4E)-hexadienoyl]-N-(4-hydroxy-2,3,5-trimethylphenyl)-1,2,3,4-tetrahydroisoquinoline-(3S)-carboxamide hydrochloride] | 23.0 |  |  | 
3 | 0.55 | Cc1cc(NC(=O)[C@@H]2Cc3ccc(N(C)C)cc3CN2C(=O)C(C)(C)C)c(C)c(C)c1O.Cl [Example 73, 7-dimethylamino-2-(2,2-dimethylpropionyl)-N-(4-hydroxy-2,3,5-trimethylphenyl)-1,2,3,4-tetrahydroisoquinoline-(3S)-carboxamide hydrochloride] | 32.9 | 97.0 | 91.8 | 97.7
